US5514653A, “Method of blocking the SEC receptor” (Washington University, priority 1994, dated 1996)
“Also recorded” adds a separate entry of the source. Where two headings read alike, the source gives them in different places. Blank lines part the entries; values can stand above or below the compound they belong to. No end group written: not given here.

Columns and labels:
PC12 cells [1] = test: Inhibition of amyloid-β 25-35 neurotoxicity (MTT assay) in PC12 cells; format: cell-based; conditions: FIG. 3 and 4
Source text: (§1) The MTT assay (19) was used to monitor the neurotoxicity of amyloid-β peptide. […] Inhibition of MTT reduction is a specific, early indicator of amyloid-β-mediated cytotoxicity. The PC12 cell line was used because it is the most well characterized cell line of neuronal origin and because previous studies have shown there is abundant expression of SEC receptor in this cell line. Using ^125 I peptide 105Y there is specific, saturable binding.
First, the effect of amyloid-β 25-35 on MTT reduction in PC12 cells was examined (FIG. 1). PC12 cells were incubated for six (6) hours at 37° C. with amyloid-β 25-35 in several different concentrations as shown on the horizontal axis. MTT was added and the cells incubated at 37° C. for another two (2) hours. Cell extraction buffer was added and the incubation continued at 37° C. overnight. […] Results were reported as percent control response as determined by the difference between control cells and cells lysed prior to incubation with MTT. […]
(§2) In the MTT assay used herein, inhibition of cellular redox activity is measured by 3- 4,5-dimethylthiazol-2-yl!-2,5-diphenyltetrazolium bromide (MTT) by conventional procedures as described by Hansen et al. (19).

SEC receptor [2] = test: Competition for binding to the SEC receptor
SEC receptor [3] = conditions: cited from earlier work
neutrophils = conditions: cited from earlier work
substance P receptor = substance P receptor (Homo sapiens, UniProt P25103); conditions: cited from earlier work
PC12 cells [4] = test: MTT assay of neurotoxicity in PC12 cells; format: cell-based; conditions: for effect on MTT reduction: FIG. 1 and 2
Description: as §1, with “line.” for “line. Using ^125 I peptide 105Y there is specific, saturable binding.”
First, the effect of amyloid-β 25-35 on MTT reduction in PC12 cells was examined (FIG. 1). PC12 cells were incubated for six (6) hours at 37° C. with amyloid-β 25-35 in several different concentrations as shown on the horizontal axis. MTT was added and the cells incubated at 37° C. for another two (2) hours. Cell extraction buffer was added and the incubation continued at 37° C. overnight. Cell extracts were then subjected to spectro-photometric analysis at 570 nm.
Second, the specificity of the effect of amyloid-β 25-35 on MTT reduction in PC12 cells was examined (FIG. 2).
as §2

neurons = conditions: cited from earlier work

Sequence of substance P receptor (P25103 whole entry, species assumed): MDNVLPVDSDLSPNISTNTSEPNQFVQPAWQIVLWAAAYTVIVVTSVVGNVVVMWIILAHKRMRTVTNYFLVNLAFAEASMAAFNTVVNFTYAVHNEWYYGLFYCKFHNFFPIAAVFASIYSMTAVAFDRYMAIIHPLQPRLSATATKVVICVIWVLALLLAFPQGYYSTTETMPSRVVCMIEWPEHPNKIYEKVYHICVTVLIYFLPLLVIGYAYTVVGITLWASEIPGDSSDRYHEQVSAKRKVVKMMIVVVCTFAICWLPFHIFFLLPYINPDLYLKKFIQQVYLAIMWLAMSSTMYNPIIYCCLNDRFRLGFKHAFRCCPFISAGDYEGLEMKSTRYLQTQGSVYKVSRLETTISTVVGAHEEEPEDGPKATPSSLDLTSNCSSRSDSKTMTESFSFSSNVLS

competition for binding to the SEC receptor (SEC receptor [2]): compete for binding to the SEC receptor
Compound: α1 -AT-elastase complexes: complexes of α1-antitrypsin with elastase which compete for binding to the SEC receptor
inhibition of the effect of amyloid-β 25-35 (neurotoxicity) (PC12 cells [1]): inhibit the effect of amyloid-β 25-35

Compound: amyloid-β
binding to / recognition by the SEC receptor (SEC receptor [3]): bind to the SEC receptor | neutrophil chemotactic effect (neutrophils): neutrophil chemotactic effects | binding to / recognition by the substance P receptor (substance P receptor): does not recognize | binding to / recognition by the substance P receptor (substance P receptor; listed as Amyloid-β): do not bind to the substance P receptor

Compound: amyloid-β 1-40: region of the amyloid-β protein
effect on MTT reduction (PC12 cells [4]): effect similar to that of amyloid-β 25-35

Compound: amyloid-β 1-28: region of the amyloid-β protein
effect on MTT reduction (PC12 cells [4]): no effect

Compound: IAGRSLNPNRVTLRYNKPFILVLFETPGNSLVFLGRISNPATK [PB145]
neurotoxic activity of the peptide by itself (PC12 cells [4]; peptide alone): did not have any neurotoxic activity by itself

Compound: native α1-AT: native α1-antitrypsin, negative control
inhibition of the effect of amyloid-β 25-35 (neurotoxicity) (PC12 cells [1]): does not

Compound: substance K
binding to / recognition by the SEC receptor (SEC receptor [3]): approximately similar affinities

Compound: neurokinin B
binding to / recognition by the SEC receptor (SEC receptor [3]): approximately similar affinities

Compound: CSCC[C@H](NC(=O)[C@H](CC(C)C)NC(=O)[C@H](Cc1cnc[nH]1)NC(=O)CNC(=O)[C@@H](NC(=O)[C@H](C)NC(=O)[C@H](Cc1c[nH]c2ccccc12)NC(=O)[C@H](CCC(N)=O)NC(=O)[C@H](CC(N)=O)NC(=O)CNC(=O)[C@H](CC(C)C)NC(=O)[C@H](CCCN=C(N)N)NC(=O)[C@H](CCC(N)=O)NC(=O)[C@@H]1CCC(=O)N1)C(C)C)C(N)=O [bombesin]
binding to / recognition by the substance P receptor (substance P receptor): does not recognize

Compound: substance P
binding to / recognition by the SEC receptor (SEC receptor [3]): bind to the SEC receptor; also recorded: approximately similar affinities | blocking of amyloid-β 25-35 effects on neurons (neurons): blocked | desensitization of the SEC receptor on neutrophils to chemotactic effects of amyloid-β (neutrophils): elicited homologous desensitization | neutrophil chemotactic effect (neutrophils): neutrophil chemotactic effects
